89 compounds from a melting point compilation (Tetko et al.; mined from patent text by program, amines drawn as free bases though some values may be those of a salt) can be followed below.

Structures are written as SMILES.

On to `COc1ccc(Cl)cc1C1CC(=O)c2c(C)ccnc2C1` (centres undefined), for which the melting point lay within 131 to 133 °C.

For `Cc1noc(-c2ccc(CN3C(=O)C4(COc5cc6c(cc54)OCCO6)c4ccccc43)cc2)n1` (centres undefined), the melting point lay in the range of 177 to 178 °C.

As to `COc1cccc2cc(C)c(-c3ccccc3)nc12`, the melting point is 105 °C.

In turn, `O=C(Nc1cccc(Cl)c1C(=O)O)c1cccc(F)c1` yielded a melting point of 216 to 219 °C.

In turn, `CCC(C)c1ccc2c(c1)C1(O)C(=O)c3ccccc3C1(O)O2` (centres undefined) came in with a melting point of 134 to 136 °C.

As for `CCCOc1cc(-n2c(=O)cc(C(F)(F)F)n(C)c2=O)c(F)cc1Br`, the melting point turned out to be 119 °C.

`COC(=O)C(Cc1ccccc1)Oc1ccc2cc(-c3cnc(Cc4ccccc4)o3)ccc2c1` (centres undefined) showed a melting point of 88 to 90 °C.

In turn, `CCCCCCCCCCOc1ccc(C(=O)Oc2ccc(OC(=O)[C@@H]3O[C@@H]3CCC)cc2)cc1Cl` gave a melting point of 66.4 °C.

`CCOC(=O)c1c(C)nn(-c2ccc(F)cc2)c1C` gave a melting point of 59 to 60 °C.

As to `OCCOCCn1c2ccccc2c2ccccc21`, the melting point lay in the range of 80 to 81 °C.

The compound `CCC(CC)n1nc(-c2ccc(OC)cc2OC)c2cccc(C(F)(F)F)c21` yielded a melting point of 115 to 116 °C.

`CC(C)CCC(=O)N[C@@H](Cc1ccccc1)C(=O)CSCc1ccco1`: the melting point fell in the range of 68 to 71 °C.

In turn, `O=C1NCCNN1c1ccc(Cc2ccc(Cl)cc2)c(Cl)c1` came in with a melting point of 157 to 158 °C.

Regarding `Cc1cc(C)c2cccc(OCc3c(Cl)ccc(S(=O)(=O)N4CCC[C@H]4C(=O)NCCCNC(=O)c4cccc(C(N)=NO)c4)c3Cl)c2n1`, the melting point lay in the range of 108 to 110 °C.

`CCCCCc1c(C(C)O)nc(C(C)C)c(CO)c1-c1ccc(F)cc1` (centres undefined): the melting point is 125 to 127 °C.

On to `COc1cc(CCl)cc(OC)c1OCc1nc(-c2ccccc2)oc1C`, for which the melting point is 118 to 119 °C.

Compound `CS(=O)(=O)c1ccc(C(=O)C2C(=O)CCCC2=O)c(Cl)c1OCc1cc(-c2ccccc2)no1` yielded a melting point of 72 to 78 °C.

Compound `COC(=O)c1ncnn1C1OC(COC(=O)c2ccccc2)C(OC(=O)c2ccccc2)C1OC(=O)c1ccccc1` (centres undefined) yielded a melting point of 122 to 124 °C.

`COc1ccc(O[C@@H]2CCNC[C@H]2O)c(Br)c1` (relative stereo) returned a melting point of 132 to 135 °C.

On to `Cc1ccc(NS(=O)(=O)c2ccc(N3CCNC3=O)cc2)c(C)c1`, for which the melting point was in the range of 238 to 239 °C.

Compound `O=C(O)c1ccc(NC(=O)c2ccc(-c3ccccc3)cc2)cc1` displayed a melting point greater than 320 °C.

As for `COc1cc(C(=O)c2c(N)sc3c2CCN(Cc2ccccc2)C3)ccc1OC(C)C`, the melting point is 113 to 114 °C.

`O=P(O)(O)CNCCc1ccccc1` registered a melting point of 148 to 150 °C.

Turning to `O=C1C2CCCCN2C(=O)N1c1ccc([N+](=O)[O-])c2ccccc12` (centres undefined), the melting point was in the range of 190 to 192 °C.

Compound `Nc1cc(F)c(NCC(O)CO)cc1[N+](=O)[O-]` (centres undefined) showed a melting point of 129 to 130 °C.

Consider `ClCc1cc(Cl)nc(Cl)n1`, for which the melting point was 32 to 33 °C.

`COC(=O)c1cscc1NC(=O)NCCCCBr`: the melting point lay within 85 to 86 °C.

The compound `COC(=O)CC(=O)Nc1ccc(C2=NNC(=O)CC2C)cc1` (centres undefined) displayed a melting point of 228 to 230 °C.

As for `Cn1c(=O)c2ncn3c2n(c1=O)CC=C3c1cccc(C(F)(F)F)c1`, the melting point lay in the range of 287 to 290 °C.

As for `CCc1cc(CC)nc(S)n1`, the melting point was in the range of 82 to 84.5 °C.

`CCC1(O)CC(=O)OCc2c1cc1n(c2=O)Cc2c-1nc1cc(F)ccc1c2-c1ccccc1` (centres undefined) had a melting point greater than 250 °C.

The compound `CS(=O)(=O)c1ccc(-c2cc(C(=O)CCCO)nn2-c2ccc(F)cc2)cc1` gave a melting point of 164 to 166 °C.

In the case of `CCn1cc(CN(C(=O)C2CCCc3cc(OCCO)ccc32)c2ccc(C(C)C)cc2)cn1` (centres undefined), the melting point is 137 °C.

The compound `CCOC(=O)CCCCn1c(=O)[nH]c2ccc(O)cc2c1=O` registered a melting point of 105 to 107 °C.

The compound `Cc1c(Br)c(O)c(Br)c(C)c1-c1c(C)c(Br)c(O)c(Br)c1C` registered a melting point of 242 to 245 °C.

`CCCc1c(CSc2nnc(NC(=O)CC(=O)OCc3ccc(OC)cc3)s2)ccc(C(C)=O)c1O` had a melting point of 162 to 166 °C.

`COc1ccc(/C=C/C(=O)CC(=O)/C=C/c2ccc(O)cc2Cl)cc1O` gave a melting point of 120 to 130 °C.

Regarding `CCCCCCCCCCCCCCCCCCC(CO)CC1(C)OCCO1` (centres undefined), the melting point fell in the range of 34 to 35 °C.

Take `Cc1ncccc1O[C@@H]1COc2ccc(OCc3ccccc3)cc2[C@@H]1O` (relative stereo): the melting point was in the range of 133 to 134 °C.

As for `Cc1cc(C2CCN(C(=O)OC(C)(C)C)CC2)cnc1COc1ccc(S(C)(=O)=O)cc1`, the melting point fell in the range of 130 to 132 °C.

`CC1=CC(O)C(OC(=O)c2ccccc2)C(C)(C)CC1OC(=O)c1ccccc1` (centres undefined) returned a melting point of 142 to 144 °C.

As for `CCOCCOc1ccc(C(=O)Oc2ccc(C#N)c(F)c2)cc1`, the melting point was in the range of 62.4 to 63.2 °C.

The compound `O=C(CCc1cccc([N+](=O)[O-])c1)Nc1ccc(Nc2ccccc2)cc1` had a melting point of 130 to 132 °C.

`O=C(NCc1cccs1)c1ccc(Cl)cc1` came in with a melting point of 153 to 154 °C.

`COC(=O)/C=C(\CCCCc1ccccc1)Sc1ccc(OC)c(OC)c1` showed a melting point of 53 to 55 °C.

`Cc1csc(N2CCN(Cc3ccc(C(=O)n4nccc4C)cc3)C2=O)n1` came in with a melting point of 96 to 97 °C.

On to `Oc1ccc(Cl)c(Cl)c1OCC1CO1` (centres undefined), for which the melting point lay in the range of 92 to 94 °C.

As for `COc1cc2c(cc1O)CCCC(=O)N2Cc1cc(OC)c(OC)c(OC)c1`, the melting point was 170 to 171 °C.

`COc1ccc(Cc2cc(=O)[nH]c3nc(OCc4ccccn4)ncc23)cc1Cl` returned a melting point of 130 to 131 °C.

With `CCOC(=O)C(CCc1ccccc1)=NO`, the melting point lay in the range of 84 to 85 °C.

`O=C(c1ccc(O)cc1)c1c(-c2ccccc2)sc2cc(O)ccc12` yielded a melting point of 245 to 246 °C.

As for `Nc1ccc2c(c1)C(NC(=O)C(F)(F)F)CC2` (centres undefined), the melting point was 133 to 134 °C.

For `CCOc1cc(O)cc2c1C(=O)N(CSc1ccccc1)S2(=O)=O`, the melting point lay in the range of 204 to 205 °C.

`O=C(NCCCO)c1ccnc2ccccc12` returned a melting point of 201 to 202 °C.

Compound `CCCCCCC(=N)NC(=O)Nc1ccc(Cl)cc1` had a melting point of 168 to 169 °C.

The compound `O=CNc1ccccc1C1=NN(c2ccc(Cl)cc2)C(=O)C1` showed a melting point of 170 to 172 °C.

As to `COc1nn2ccccc2c1C(C)=O`, the melting point came out at 158 °C.

In the case of `C=CCNc1nc(NCC)nc2ccc([N+](=O)[O-])cc12`, the melting point fell in the range of 227 to 228 °C.

With `CC(C)(C)C(=O)C(Oc1ccc(Cl)cc1)c1cccnc1` (centres undefined), the melting point was found to be 50 °C.

`Cc1cnc(C)c(NCCc2c[nH]cn2)n1` came in with a melting point of 164 to 165 °C.

The compound `O=C(Nc1cccc2ccccc12)OCCCC(=O)c1ccccc1` registered a melting point of 95 to 97 °C.

Regarding `O=C(Nc1cccc(-n2nc(C(F)(F)F)cc2C(F)(F)F)c1)c1cccc(Cl)c1Cl`, the melting point was in the range of 119 to 121 °C.

`O=C(O)/C=C/c1ccc(-c2nc3c(=O)n(CC4CC4)c(=O)n(CC4CC4)c3[nH]2)cc1` displayed a melting point greater than 250 °C.

With `CS(=O)(=O)Nc1c([N+](=O)[O-])cnn1-c1c(Cl)cc(C(F)(F)F)c(F)c1Cl`, the melting point is 107 to 115 °C.

`CC(C)N(Cc1ccc(Cl)c(Cl)c1)S(=O)(=O)c1ccc(Cl)s1` returned a melting point of 66 to 67 °C.

Turning to `CN1c2ccccc2C(=O)c2ccccc2C12OCCO2`, the melting point fell in the range of 192 to 193 °C.

`O=C(O)C(Cc1cnc2cc(OCc3ccc(Cl)cc3)ccc2c1)Sc1ccccc1` (centres undefined) had a melting point of 157 to 158 °C.

As for `CCCCOC(=O)C(CCc1ccccc1)NC1CSC(c2ccsc2)CN(CC(=O)O)C1=O` (centres undefined), the melting point was 156 °C.

For the compound `COCCC1(C(=O)N[C@@H](Cc2ccc(NC(=O)c3cc(C#N)ccc3Cl)cc2)C(=O)OC)CCCC1`, the melting point was 172 to 175 °C.

In turn, `CN1C(=O)C(c2cccc(OCC3CC3)c2)(c2cnn(CC(F)(F)F)c2)N=C1N` (centres undefined) returned a melting point of 78 to 80 °C.

On to `COc1cc2cc(C(C#N)N3CCOCC3)sc2cc1OC` (centres undefined), for which the melting point was in the range of 196 to 199 °C.

The compound `Cc1ccc(C#N)c(Nc2ccccc2[N+](=O)[O-])c1` gave a melting point of 162 to 164 °C.

`CC(C)(C#N)c1c(Cl)cc(-n2nc(C(=O)O)c(=O)[nH]c2=O)cc1Cl` gave a melting point of 157 °C.

For the compound `CNC(=O)C(=NOCF)c1ccccc1Oc1ncnc(Oc2ccccc2Cl)c1F`, the melting point fell in the range of 128 to 129 °C.

Consider `COc1cccc(CNC(=O)c2nc3ccc(-c4nnn[nH]4)cc3c(=O)[nH]2)c1`, for which the melting point was 258 to 260 °C.

The compound `CC(C)(C)c1cc(C2=NNC(=O)CC2)cc(C(C)(C)C)c1O` displayed a melting point of 200 to 203 °C.

For the compound `CCOC(=O)[C@H](CSCc1ccc(C)c(C)c1)NC(=O)C(CSC(C)=O)Cc1ccccc1` (some centres undefined), the melting point lay in the range of 51 to 55 °C.

Compound `CCOC(=O)C1(n2cc(Cl)cc2C(=O)C(Cl)(Cl)Cl)CC(=O)NC1=O` (centres undefined) yielded a melting point of 182 to 185 °C.

Regarding `Cc1ccc(N2CCN(Cc3ccc4c(c3)NC(=O)CO4)CC2)cc1`, the melting point fell in the range of 209 to 212 °C.

On to `COc1nc(C)c(N2CCCn3c2nc2c(Br)ccc(C(OC(F)F)C(F)(F)F)c23)c(C)n1` (centres undefined), for which the melting point was in the range of 211 to 213 °C.

`Fc1ccc(CN2CCN(C3CC=C(c4ccc(F)cc4)CC3)CC2)cc1` (centres undefined) gave a melting point of 109 to 110 °C.

`Cc1nc(-n2ccc(OCc3ccc(F)cc3)cc2=O)sc1C(=O)NCc1ccccc1`: the melting point lay in the range of 243 to 245 °C.

Consider `CCSC1CC2(C)C(CCC3C4CCC(C(C)=O)C4(C)CC(=O)C32)CC1O` (centres undefined), for which the melting point was 170 to 173 °C.

For `CC(O)(Cc1cncs1)c1ccc(Cl)cc1Cl` (centres undefined), the melting point is 164 °C.

`[N-]=[N+]=NCCOc1cc(Cl)cc([N+](=O)[O-])c1N` showed a melting point of 113 to 114 °C.

In the case of `CC(=O)Nc1cccc2c1C(=O)OC2(C)C`, the melting point turned out to be 124 °C.

The compound `CCCCCCCOc1cc2c(cc1C=Cc1ccc(C(=O)O)cc1)C(C)(C)CCC2(C)C` showed a melting point of 153 to 155 °C.

In turn, `CCC(CC)/C(N)=C(\C)C#N` yielded a melting point of 150 °C.

`O=C1N(Cc2ccc(F)cc2)Cc2cncn2C1(Cc1ccccc1)c1ccc(Br)cc1` (centres undefined) registered a melting point of 166 to 168 °C.

By melting point is commonly meant the temperature, or range, at which the solid turns liquid.
